One assay relates to THP-1 cells. The experiment in a line: TNFα generation assay. The note with it: Homo sapiens. The assay is classed as cell-based, human. In short, it runs like this:
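THP-1 cells differentiated to macrophage-like cells with 10 ng/ml IFN-γ for 2 days, preincubated with compound 30 min at room temperature, then cultured 7 h on plates coated with human IgG (10 μg/ml). Secreted TNFα measured by ELISA or AlphaLISA.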

For assay [1], the target named is T1, glutathione S-transferase (GST)-fused full-length human Syk protein (Homo sapiens, UniProt P43405).
T1 construct: (GST)-fused full-length human Syk protein; GST (glutathione S-transferase); purchased Carna Biosciences
The experiment in a line: Syk enzyme assay. Format: biochemical. In short, it runs like this: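 IC50 values come from a time-resolved FRET readout (615 and 665 nm) of substrate phosphorylation, measured after an EDTA stop and 1 h antibody binding. The kinase reaction ran 40 min at room temperature with 27 μM ATP and 0.4 μM biotin-peptide, following a 15 min compound preincubation with baculovirus-made GST-full-length human Syk.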

Setting [2] is: THP-1, THP-1 cells, Table 22, read-out: IC50 in TNFα generation assay.
The mark [3] stands for this setting: Syk enzyme assay, Test Example 1, read-out: IC50 of Syk-inhibitory activity.

Where two headings read alike, the source gives them in different places.

Take `COCCOCCOc1ccc2cc(Nc3nc(NC4CCCCC4N)c(F)cc3C(N)=O)ccc2n1` (centres unmarked) [Example 002-110]: the IC50 in the assay on THP-1 cells (setting [2]) was 130 to 200 nM; in assay [1] (setting [3]) it was under 10 nM.

As to `COCCOc1ccc2cc(Nc3nc(N[C@@H]4CCCC[C@@H]4N)c(F)cc3C(N)=O)cnc2c1` (relative stereo) [Example 004-127, 6-(cis-2-aminocyclohexylamino)-5-fluoro-2-((7-(2-methoxyethoxy)quinolin-3-yl)amino)-nicotinamide], the IC50 was 130 to 200 nM in the assay with THP-1 cells (setting [2]) and under 10 nM in assay [1] (setting [3]).

Consider `CCC[C@@H](Nc1nc(Nc2ccnc(-c3cccc(OC)c3)c2)c(C(N)=O)cc1F)[C@H](C)N` [Example 006-334, 6-(((2S,3R)-2-aminohexan-3-yl)amino)-5-fluoro-2-((2-(3-methoxyphenyl)pyridin-4-yl)amino)nicotinamide], for which the figures for the IC50 (in the assay with THP-1 cells (setting [2]); in assay [1] (setting [3])) were 65 to 130 nM and under 10 nM, respectively.

For `NC(=O)c1cc(F)c(N[C@@H]2CCCC[C@@H]2N)nc1Nc1cncc2cccnc12` [Example 004-004], the IC50 in the assay on THP-1 cells (setting [2]) lay in the range of 65 to 130 nM; in assay [1] (setting [3]), 10 to 50 nM.

As for `CC[C@@H](Nc1nc(Nc2ccnc(-c3ccc(OC)cc3F)c2)c(C(N)=O)cc1F)[C@H](C)N` [Example 006-332, 6-(((2S,3R)-2-aminopentan-3-yl)amino)-5-fluoro-2-((2-(2-fluoro-4-methoxyphenyl)pyridin-4-yl)amino)nicotinamide], the figures for the IC50 (in the assay with THP-1 cells (setting [2]); in assay [1] (setting [3])) were under 65 nM and under 10 nM, respectively.

On to `Cc1nn(CC(F)F)c2cc(Nc3nc(N[C@H](CC4CC4)[C@H](C)N)c(F)cc3C(N)=O)ccc12` [Example 006-489, 6-(((2R,3S)-3-amino-1-cyclopropylbutan-2-yl)amino)-2-((1-(2,2-difluoroethyl)-3-methyl-1H-indazol-6-yl)amino)-5-fluoronicotinamide], for which the IC50 in the assay with THP-1 cells (setting [2]) was 130 to 200 nM; in assay [1] (setting [3]) it was under 10 nM.

In the case of `CCc1nn(CC)c2ccc(Nc3nc(N[C@@H]4CCCC[C@@H]4N)c(F)cc3C(N)=O)cc12` [Example 006-452, 6-(((1R,2S)-2-aminocyclohexyl)amino)-2-((1,3-diethyl-1H-indazol-5-yl)amino)-5-fluoronicotinamide], the IC50 in the assay with THP-1 cells (setting [2]) is under 65 nM; in assay [1] (setting [3]), under 10 nM.

Regarding `C[C@H](N)[C@@H](CC1CC1)Nc1nc(Nc2ccc3c(cnn3CCF)c2)c(C(N)=O)cc1F` [Example 006-420, 6-(((2R,3S)-3-amino-1-cyclopropylbutan-2-yl)amino)-5-fluoro-2-((1-(2-fluoroethyl)-1H-indazol-5-yl)amino)nicotinamide], the IC50 in the assay on THP-1 cells (setting [2]) was 65 to 130 nM; in assay [1] (setting [3]), under 10 nM.

As for `NC(=O)c1cc(F)c(N[C@@H]2CCCC[C@@H]2N)nc1Nc1cncc(N2CCCCC2)c1` (relative stereo) [Example 004-050], the figures for the IC50 (with THP-1 cells (setting [2]); in assay [1] (setting [3])) were 130 to 200 nM and 10 to 50 nM, respectively.

For `NC(=O)c1cc(F)c(N[C@@H]2CCCC[C@@H]2N)nc1Nc1cncc(-c2ccc[nH]2)c1` (relative stereo) [Example 004-053], the figures for the IC50 (with THP-1 cells (setting [2]); in assay [1] (setting [3])) were 65 to 130 nM and under 10 nM, respectively.

As for `CC(C)C[C@@H](Nc1nc(Nc2ccc3ncccc3c2)c(C(N)=O)cc1F)C(N)=O` [Example 11, 6-(((2R)-1-amino-4-methyl-1-oxopentan-2-yl)amino)-5-fluoro-2-(quinolin-6-ylamino)nicotinamide], the IC50 in the assay on THP-1 cells (THP-1, 7 h, IFN-γ-differentiated THP-1 cells on human IgG-coated plate, cultured 7 hours, read-out: TNFα generation inhibitory activity (IC50)) is at most 200 nM; in assay [1] (read-out: Syk-inhibitory activity (IC50)), at most 1000 nM.

As for `COc1ccc(F)c(-c2cc(Nc3nc(N[C@@H](CN)CC(C)C)c(F)cc3C(N)=O)ccn2)c1` [Example 006-321, (R)-6-((1-amino-4-methylpentan-2-yl)amino)-5-fluoro-2-((2-(2-fluoro-5-methoxyphenyl)pyridin-4-yl)amino)nicotinamide], the values for the IC50 (with THP-1 cells (setting [2]); in assay [1] (setting [3])) were 130 to 200 nM and under 10 nM, respectively.

Turning to `NC(=O)c1cc(F)c(N[C@@H]2CCCC[C@@H]2N)nc1Nc1cnc(N2CCOCC2)c(Cl)c1` [Example 006-466, 6-(((1R,2S)-2-aminocyclohexyl)amino)-2-((5-chloro-6-morpholinopyridin-3-yl)amino)-5-fluoronicotinamide], the IC50 in the assay on THP-1 cells (setting [2]) was in the range of 65 to 130 nM; in assay [1] (setting [3]), 10 to 50 nM.

(Values after patent publication US8895585B2, “Nicotinamide derivative or salt thereof” (FUJIFILM Corporation, priority 2010, dated 2014).)
